Experiments:
rape = assay: Test B pre/postemergence rape; assay type: in vivo, Brassica napus
How it was run: (§1)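 Test chemicals in a non-phytotoxic solvent mixture with surfactant were sprayed preemergence onto planted seeds and postemergence onto plants 2 to 18 cm tall (1- to 4-leaf stage). After twelve to sixteen days in a greenhouse, injury was visually rated against untreated controls from 0 (no effect) to 10 (complete control).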

surinam grass = assay: Test B pre/postemergence surinam grass; assay type: in vivo, Brachiaria decumbens
How it was run: as §1

wild oat = assay: Test B pre/postemergence wild oat; assay type: in vivo, Avena fatua; conditions: for Plant response rating, Wild oats: Rate 250 g/ha
How it was run: as §1

bamyardgrass = assay: Test B flood test barnyardgrass; assay type: in vivo, Echinochloa crus-galli
How it was run: (§2)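 Each value is a visual injury score relative to controls, with 10 meaning complete control and 0 no effect. Evaluation took place twelve to sixteen days after the 2-leaf-stage plants were treated and kept in the greenhouse.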

crabgrass = assay: Test B pre/postemergence crabgrass; assay type: in vivo, Digitaria sanguinalis
How it was run: as §1

corn = assay: Test B pre/postemergence corn; assay type: in vivo, Zea mays
How it was run: as §1

giant foxtail = assay: Test B pre/postemergence giant foxtail; assay type: in vivo, Setaria faberii
How it was run: as §1

purple nutsedge = assay: Test B pre/postemergence purple nutsedge; assay type: in vivo, Cyperus rotundus
How it was run: as §1

sugar beet = assay: Test B pre/postemergence sugar beet; assay type: in vivo, Beta vulgaris; conditions: for Plant response rating, Sugarbeets: Rate 250 g/ha
How it was run: as §1

pigweed = assay: Test B pre/postemergence pigweed; assay type: in vivo, Amaranthus retroflexus
How it was run: as §1

rice = assay: Test B flood test rice; assay type: in vivo, Oryza sativa
How it was run: as §2

wheat = assay: Test B pre/postemergence wheat; assay type: in vivo, Triticum aestivum; conditions: for Plant response rating, Wheat: Rate 250 g/ha
How it was run: as §1

morningglory = assay: Test B pre/postemergence morningglory; assay type: in vivo, Ipomoea hederacea
How it was run: as §1

blackgrass = assay: Test B pre/postemergence blackgrass; assay type: in vivo, Alopecurus myosuroides
How it was run: as §1

smallflower flatsedge = assay: Test B flood test smallflower flatsedge; assay type: in vivo, Cyperus difformis
How it was run: as §2

bedstraw = assay: Test B pre/postemergence bedstraw; assay type: in vivo, Galium aparine
How it was run: as §1

[1] = Postemergence, Rate 125 g/ha, scale of 0 to 10 where 0 is no effect and 10 is complete control
[2] = Postemergence, Rate 250 g/ha, scale 0 to 10, 0 no effect, 10 complete control
[3] = Preemergence, Rate 62 g/ha, scale 0 to 10 (0 no effect, 10 complete control)
[4] = Preemergence, Rate 125 g/ha, scale 0 to 10 (0 no effect, 10 complete control)
[5] = Preemergence, Rate 250 g/ha, scale of 0 to 10 where 0 is no effect and 10 is complete control
[6] = Preemergence, Rate 500 g/ha, scale 0 to 10 (0 no effect, 10 complete control)
[7] = Rate 62 g/ha, Postemergence, scale of 0 to 10 where 0 is no effect and 10 is complete control
[8] = Rate 500 g/ha, Postemergence, scale 0 to 10, 0 no effect, 10 complete control
[9] = Postemergence, Rate 62 g/ha, scale 0 to 10, 0 is no effect, 10 is complete control
[10] = Rate 125 g/ha, Postemergence, scale 0 to 10, 0 no effect, 10 complete control
[11] = Preemergence, Rate 125 g/ha, 0 is no effect, 10 is complete control
[12] = Preemergence, scale of 0 to 10 where 0 is no effect and 10 is complete control
[13] = Postemergence, scale 0 to 10, 0 is no effect, 10 is complete control
[14] = Rate 500 g/ha, listed under Postemergence (flood test species), scale 0 to 10, 0 no effect, 10 complete control
[15] = Postemergence (flood test species), Rate 125 g/ha, scale of 0 to 10 where 0 is no effect and 10 is complete control
[16] = Rate 62 g/ha, Postemergence section, flood test species, scale of 0 to 10 where 0 is no effect and 10 is complete control
[17] = Rate 250 g/ha, Postemergence (flood test), scale 0 to 10, 0 is no effect, 10 is complete control

## CC(C)N(C(=O)n1oc(=O)n(C2CCCCC2)c1=O)c1ccc(F)cc1F [Compound 115]
rape; [1]
  Rape plant response rating: 0
rape; [2]
  Rape plant response rating: 0
rape; [3]
  Rape plant response rating: 0
rape; [4]
  Plant response rating, Rape: 0
rape; [5]
  Plant response rating, Rape: 0
rape; [6]
  Rape plant response rating: 5
rape; [7]
  Rape plant response rating: 0
rape; [8]
  Rape plant response rating: 0
Surinam grass; [9]
  B. signalgrass plant response rating: 0
Surinam grass; [2]
  B. signalgrass plant response rating: 0
Surinam grass; [3]
  B. signalgrass plant response rating: 2
Surinam grass; [4]
  Plant response rating, B. signalgrass: 2
Surinam grass; [5]
  Plant response rating, B. signalgrass: 4
Surinam grass; [6]
  B. signalgrass plant response rating: 10
Surinam grass; [10]
  B. signalgrass plant response rating: 0
Surinam grass; Rate 500 g/ha, Postemergence, scale of 0 to 10 where 0 is no effect and 10 is complete control
  B. signalgrass plant response rating: 8
Wild oat; [1]
  Wild oats plant response rating: 0
Wild oat; [3]
  Wild oats plant response rating: 0
Wild oat; [11]
  Wild oats plant response rating (0 to 10 scale): 0
Wild oat; [12]
  Plant response rating, Wild oats: 0
Wild oat; [6]
  Wild oats plant response rating: 4
Wild oat; [7]
  Wild oats plant response rating: 0
Wild oat; [13]
  Plant response rating, Wild oats: 0
Wild oat; [8]
  Wild oats plant response rating: 0
bamyardgrass; [9]
  Barnyardgrass plant response rating: 0
bamyardgrass; Rate 125 g/ha, Postemergence section (flood test species), scale 0 to 10, 0 no effect, 10 complete control
  Barnyardgrass plant response rating: 0
bamyardgrass; [14]
  Barnyardgrass plant response rating: 0
bamyardgrass; flood test, listed under Postemergence, Rate 250 g/ha, scale 0 to 10, 0 no effect, 10 complete control
  Barnyardgrass plant response rating: 0
crabgrass; [1]
  Crabgrass plant response rating: 0
crabgrass; [2]
  Crabgrass plant response rating: 2
crabgrass; [3]
  Crabgrass plant response rating: 4
crabgrass; [4]
  Plant response rating, Crabgrass: 4
crabgrass; [5]
  Plant response rating, Crabgrass: 7
crabgrass; [6]
  Crabgrass plant response rating: 9
crabgrass; [7]
  Crabgrass plant response rating: 0
crabgrass; [8]
  Crabgrass plant response rating: 6
corn; [1]
  Corn plant response rating: 0
corn; [2]
  Corn plant response rating: 0
corn; [3]
  Corn plant response rating: 0
corn; [4]
  Plant response rating, Corn: 0
corn; [5]
  Plant response rating, Corn: 0
corn; [6]
  Corn plant response rating: 0
corn; [7]
  Corn plant response rating: 0
corn; [8]
  Corn plant response rating: 0
Giant foxtail; [1]
  Giant foxtail plant response rating: 4
Giant foxtail; [2]
  Giant foxtail plant response rating: 5
Giant foxtail; [3]
  Giant foxtail plant response rating: 9
Giant foxtail; [4]
  Plant response rating, Giant foxtail: 9
Giant foxtail; [5]
  Plant response rating, Giant foxtail: 9
Giant foxtail; [6]
  Giant foxtail plant response rating: 10
Giant foxtail; [7]
  Giant foxtail plant response rating: 0
Giant foxtail; [8]
  Giant foxtail plant response rating: 9
Purple nutsedge; [1]
  Nutsedge plant response rating: 0
Purple nutsedge; [2]
  Nutsedge plant response rating: 0
Purple nutsedge; [3]
  Nutsedge plant response rating: 0
Purple nutsedge; [4]
  Plant response rating, Nutsedge: 0
Purple nutsedge; [5]
  Plant response rating, Nutsedge: 0
Purple nutsedge; [6]
  Nutsedge plant response rating: 0
Purple nutsedge; [7]
  Nutsedge plant response rating: 0
Purple nutsedge; [8]
  Nutsedge plant response rating: 0
Sugar beet; [1]
  Sugarbeets plant response rating: 3
Sugar beet; [3]
  Sugarbeets plant response rating: 0
Sugar beet; [11]
  Sugarbeets plant response rating (0 to 10 scale): 0
Sugar beet; [12]
  Plant response rating, Sugarbeets: 0
Sugar beet; [6]
  Sugarbeets plant response rating: 5
Sugar beet; [7]
  Sugarbeets plant response rating: 2
Sugar beet; [13]
  Plant response rating, Sugarbeets: 3
Sugar beet; [8]
  Sugarbeets plant response rating: 3
pigweed; [1]
  Redroot pigweed plant response rating: 0
pigweed; [3]
  Redroot pigweed plant response rating: 5
pigweed; [4]
  Plant response rating, Redroot pigweed: 5
pigweed; [5]
  Plant response rating, Redroot pigweed: 6
pigweed; [6]
  Redroot pigweed plant response rating: 8
pigweed; [7]
  Redroot pigweed plant response rating: 0
pigweed; Rate 250 g/ha, Postemergence, scale 0 to 10, 0 is no effect, 10 is complete control
  Plant response rating, Redroot pigweed: 0
pigweed; [8]
  Redroot pigweed plant response rating: 4
rice; [15]
  Rice plant response rating: 0
rice; [16]
  Rice plant response rating: 0
rice; [17]
  Plant response rating, Rice: 0
rice; [14]
  Rice plant response rating: 0
wheat; [1]
  Wheat plant response rating: 0
wheat; [3]
  Wheat plant response rating: 0
wheat; [11]
  Wheat plant response rating (0 to 10 scale): 0
wheat; [12]
  Plant response rating, Wheat: 0
wheat; [6]
  Wheat plant response rating: 0
wheat; [7]
  Wheat plant response rating: 0
wheat; [13]
  Plant response rating, Wheat: 0
wheat; [8]
  Wheat plant response rating: 0
morningglory; [1]
  Morningglory plant response rating: 3
morningglory; [2]
  Morningglory plant response rating: 6
morningglory; [3]
  Morningglory plant response rating: 0
morningglory; [4]
  Plant response rating, Morningglory: 0
morningglory; [5]
  Plant response rating, Morningglory: 0
morningglory; [6]
  Morningglory plant response rating: 0
morningglory; [7]
  Morningglory plant response rating: 3
morningglory; [8]
  Morningglory plant response rating: 6
blackgrass; [1]
  Blackgrass plant response rating: 4
blackgrass; [2]
  Blackgrass plant response rating: 6
blackgrass; [3]
  Blackgrass plant response rating: 0
blackgrass; [4]
  Plant response rating, Blackgrass: 0
blackgrass; [5]
  Plant response rating, Blackgrass: 0
blackgrass; [6]
  Blackgrass plant response rating: 6
blackgrass; [7]
  Blackgrass plant response rating: 4
blackgrass; [8]
  Blackgrass plant response rating: 7
Smallflower flatsedge; [15]
  S. Flatsedge plant response rating: 0
Smallflower flatsedge; [16]
  S. Flatsedge plant response rating: 0
Smallflower flatsedge; [17]
  Plant response rating, S. Flatsedge: 0
Smallflower flatsedge; [14]
  S. Flatsedge plant response rating: 0
bedstraw; [9]
  Bedstraw plant response rating: 0
bedstraw; [2]
  Bedstraw plant response rating: 4
bedstraw; [3]
  Bedstraw plant response rating: 0
bedstraw; [4]
  Plant response rating, Bedstraw: 0
bedstraw; [5]
  Plant response rating, Bedstraw: 0
bedstraw; [6]
  Bedstraw plant response rating: 0
bedstraw; [10]
  Bedstraw plant response rating: 0
